Source: patent US20240208992A1, “MACROCYCLES AS CFTR MODULATORS” (Idorsia Pharmaceuticals Ltd, priority 2021, published 2024)
pEC50: −log10 of the molar value.

Biological target: human F508del-CFTR (Homo sapiens, UniProt P13569, DEL508-508)
Assay: F508del-CFTR cell surface expression (corrector activity), DiscoveRx ß-galactosidase complementation chemiluminescence assay in recombinant U2OS cell line;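 note: U2OS cells co-expressing ProLink-tagged F508del-CFTR and a membrane-anchored enzyme acceptor, where more surface CFTR restores β-galactosidase activity measured by chemiluminescence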
Conditions: for Emax: U2OS
[1] = EC50, F508del-CFTR cell surface expression, U2OS cell line, 16h compound incubation, geomean values
[2] = in relation to the Emax of the corrector lumacaftor (=100%), U2OS cell line, 16h compound incubation, arithmetic mean values
[3] = EC50, F508del-CFTR cell surface expression, U2OS cells, 16h compound incubation, geomean values
[4] = in relation to Emax of corrector lumacaftor (=100%), arithmetic mean values
[5] = EC50, F508del-CFTR cell surface expression, U2OS cells, 16h compound incubation, geomean of several measurements
[6] = in relation to the Emax of the corrector lumacaftor (=100%), U2OS cells, 16h compound incubation, arithmetic mean

human F508del-CFTR, sequence (P13569 with tags, fused parts or gaps DEL508-508): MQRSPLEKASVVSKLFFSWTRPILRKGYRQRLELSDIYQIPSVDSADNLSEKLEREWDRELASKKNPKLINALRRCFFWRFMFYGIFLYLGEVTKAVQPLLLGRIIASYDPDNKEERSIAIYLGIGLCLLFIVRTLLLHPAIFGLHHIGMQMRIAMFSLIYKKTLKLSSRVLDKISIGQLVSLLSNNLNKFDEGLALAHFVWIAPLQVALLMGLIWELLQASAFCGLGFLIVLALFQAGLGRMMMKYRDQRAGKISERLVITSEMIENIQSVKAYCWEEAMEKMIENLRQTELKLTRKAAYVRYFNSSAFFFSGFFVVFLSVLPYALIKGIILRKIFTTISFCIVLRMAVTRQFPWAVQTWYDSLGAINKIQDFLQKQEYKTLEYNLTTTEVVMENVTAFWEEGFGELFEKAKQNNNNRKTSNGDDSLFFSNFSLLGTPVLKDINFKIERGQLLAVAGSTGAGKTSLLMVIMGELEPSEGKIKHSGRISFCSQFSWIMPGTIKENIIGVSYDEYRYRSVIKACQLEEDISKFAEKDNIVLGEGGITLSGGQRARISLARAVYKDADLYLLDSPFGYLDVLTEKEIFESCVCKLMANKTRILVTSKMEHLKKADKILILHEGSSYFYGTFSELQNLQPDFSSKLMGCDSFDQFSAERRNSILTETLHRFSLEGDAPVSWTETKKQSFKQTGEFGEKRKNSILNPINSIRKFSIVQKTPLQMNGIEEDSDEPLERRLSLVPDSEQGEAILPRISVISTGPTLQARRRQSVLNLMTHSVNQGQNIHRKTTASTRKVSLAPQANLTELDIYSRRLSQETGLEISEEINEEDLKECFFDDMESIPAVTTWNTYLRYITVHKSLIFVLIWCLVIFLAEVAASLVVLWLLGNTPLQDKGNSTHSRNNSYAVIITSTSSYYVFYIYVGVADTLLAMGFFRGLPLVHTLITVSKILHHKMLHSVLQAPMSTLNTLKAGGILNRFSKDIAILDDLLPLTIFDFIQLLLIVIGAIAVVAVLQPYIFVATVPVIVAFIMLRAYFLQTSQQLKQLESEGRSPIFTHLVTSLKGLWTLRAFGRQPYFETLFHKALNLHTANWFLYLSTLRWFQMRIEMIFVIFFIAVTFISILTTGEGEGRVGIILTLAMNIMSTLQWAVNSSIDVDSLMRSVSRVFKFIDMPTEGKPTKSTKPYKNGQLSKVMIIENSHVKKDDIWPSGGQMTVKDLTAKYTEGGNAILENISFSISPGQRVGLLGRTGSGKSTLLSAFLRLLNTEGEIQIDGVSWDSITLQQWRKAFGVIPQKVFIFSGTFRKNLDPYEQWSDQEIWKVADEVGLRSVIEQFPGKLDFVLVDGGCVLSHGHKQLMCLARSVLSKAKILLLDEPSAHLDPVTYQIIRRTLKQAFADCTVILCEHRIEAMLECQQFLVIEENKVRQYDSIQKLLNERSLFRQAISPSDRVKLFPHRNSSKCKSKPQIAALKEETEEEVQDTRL

Row | Compound | pEC50 [1] | Emax [2] | other results
1 | COc1cccc(CCNC(=O)[C@@H]2CC(=O)N(C)[C@@H](CC(C)C)C(=O)N(CCC3CCCCC3)CC(=O)N[C@H](Cc3ccccc3)COc3cnc4c(F)cccc4c3C(=O)N2)c1 [Example 383, (3S,7S,13R)-13-benzyl-9-(2-cyclohexylethyl)-18-fluoro-7-isobutyl-N-(3-methoxyphenethyl)-6-methyl-1,5,8,11-tetraoxo-1,2,3,4,5,6,7,8,9,10,11,12,13,14-tetradecahydro-[1]oxa[4,7,10,14]tetraazacycloheptadecino[17,16-c]quinoline-3-carboxamide] | 7.19 | 317% | –
2 | CC(C)C[C@H]1C(=O)N2CCCC[C@@H]2C(=O)N[C@H](Cc2ccccc2)COc2cnc3ccccc3c2C(=O)N[C@H](C(=O)NCCc2nc(-c3ccccc3)no2)CC(=O)N1C [Example 76, (9S,13S,19aR,22R)-22-benzyl-13-isobutyl-12-methyl-7,11,14,20-tetraoxo-N-(2-(3-phenyl-1,2,4-oxadiazol-5-yl)ethyl)-7,8,9,10,11,12,13,14,17,18,19,19a,20,21,22,23-hexadecahydro-16H-pyrido[2′,1′:6,7][1]oxa[4,7,10,14]tetraazacycloheptadecino[17,16-c]quinoline-9-carboxamide] | 6.71 | 283% | –
3 | CCC(=O)CCCCC[C@@H]1NC(=O)[C@H]2CCCCN2C(=O)[C@H]([C@@H](C)CC)NC(=O)[C@H](Cc2cn(OC)c3ccccc23)NC1=O [Apicidin, reference compound] | – | – | pEC50 (EC50, recombinant U2OS cell line (DiscoveRx) expressing PK-tagged human F508del-CFTR, 16h compound incubation, same conditions as example compounds): < 4.70
4 | COc1cccc(CCNC(=O)[C@@H]2CC(=O)N(C)[C@@H](CC(C)C)C(=O)N(C)CC(=O)N[C@H](Cc3ccccc3)COc3nc4ccccn4c3C(=O)N2)c1 [Example 449, (3R,9S,13S)-3-benzyl-9-isobutyl-N-(3-methoxyphenethyl)-7,10-dimethyl-5,8,11,15-tetraoxo-2,3,4,5,6,7,8,9,10,11,12,13,14,15-tetradecahydropyrido[2′,1′:2,3]imidazo[4,5-p][1]oxa[4,7,10,14]tetraazacycloheptadecine-13-carboxamide] | – | – | pEC50 [3]: 6.27; Emax [4]: 165%
5 | COc1cccc(CCNC(=O)[C@@H]2CC(=O)N(C)[C@@H](CC(C)C)C(=O)N3CCN(C4CC4)C[C@@H]3C(=O)N[C@H](Cc3ccccc3)COc3cnc4ccccc4c3C(=O)N2)c1 [Example 389, (9S,13S,19aR,22R)-22-benzyl-18-cyclopropyl-13-isobutyl-N-(3-methoxyphenethyl)-12-methyl-7,11,14,20-tetraoxo-7,8,9,10,11,12,13,14,17,18,19,19a,20,21,22,23-hexadecahydro-16H-pyrazino[2′,1′:6,7][1]oxa[4,7,10,14]tetraazacycloheptadecino[17,16-c]quinoline-9-carboxamide] | 6.94 | 320% | –
6 | COc1cccc(CCNC(=O)[C@@H]2CC(=O)N(C)[C@@H](CC(C)C)C(=O)N3CCN(S(=O)(=O)c4ccc5c(c4)OCCN5C)C[C@@H]3C(=O)N[C@H](Cc3ccccc3)COc3ccc4ccccc4c3C(=O)N2)c1 [Example 741, (4aR,7R,18S,22S)-7-benzyl-22-isobutyl-N-(3-methoxyphenethyl)-21-methyl-3-((4-methyl-3,4-dihydro-2H-benzo[b][1,4]oxazin-7-yl)sulfonyl)-5,16,20,23-tetraoxo-2,3,4,4a,5,6,7,8,16,17,18,19,20,21,22,23-hexadecahydro-1H-naphtho[1,2-p]pyrazino[2,1-f][1]oxa[4,7,10,14]tetraazacycloheptadecine-18-carboxamide] | – | – | pEC50 [3]: 6.94; Emax [4]: 294%
7 | Cc1cc2c3c(ccc2cn1)OC[C@@H](Cc1ccccc1)NC(=O)[C@@H](CC(F)(F)F)N(C)C(=O)[C@H](CC(C)C)N(C)C(=O)C[C@@H](C(=O)NCCc1cc(C2CC2)no1)NC3=O [Example 956, (3S,7S,10R,13R)-13-benzyl-N-(2-(3-cyclopropylisoxazol-5-yl)ethyl)-7-isobutyl-6,9,20-trimethyl-1,5,8,11-tetraoxo-10-(2,2,2-trifluoroethyl)-1,2,3,4,5,6,7,8,9,10,11,12,13,14-tetradecahydro-[1]oxa[4,7,10,14]tetraazacycloheptadecino[16,17-f]isoquinoline-3-carboxamide] | – | – | pEC50 [5]: 6.29; Emax [6]: 412%
8 | COc1cccc(CCNC(=O)[C@@H]2CC(=O)N(C)[C@@H](CC(C)C)C(=O)N3CCN(CC(C)C)C[C@@H]3C(=O)N[C@H](Cc3ccccc3)COc3cccc(OC)c3C(=O)N2)c1 [Example 612, (7S,11S,20R,22aR)-20-benzyl-2,7-diisobutyl-14-methoxy-N-(3-methoxyphenethyl)-8-methyl-6,9,13,22-tetraoxo-1,3,4,6,7,8,9,10,11,12,13,19,20,21,22,22a-hexadecahydro-2H-benzo[p]pyrazino[2,1-f][1]oxa[4,7,10,14]tetraazacycloheptadecine-11-carboxamide] | – | – | pEC50 [3]: 6.83; Emax [4]: 298%
9 | CN1C(=O)C[C@@H](C(=O)NCCc2ccc3c(c2)OCO3)NC(=O)c2c(ccc3ccccc23)OC[C@@H](Cc2ccccc2)NC(=O)CN(C[C@H]2CCCCO2)C(=O)[C@@H]1CC1CCCC1 (mixture of isomers) [Example 286, (3RS,7S,13R)-N-(2-(benzo[d][1,3]dioxol-5-yl)ethyl)-13-benzyl-7-(cyclopentylmethyl)-6-methyl-1,5,8,11-tetraoxo-9-(((R)-tetrahydro-2H-pyran-2-yl)methyl)-1,2,3,4,5,6,7,8,9,10,11,12,13,14-tetradecahydronaphtho[1,2-p][1]oxa[4,7,10,14]tetraazacycloheptadecine-3-carboxamide] | 6.75 | – | –
10 | CCOCC[C@@H]1C(=O)N[C@H](Cc2ccccc2)COc2ccc3ncc(F)cc3c2C(=O)N[C@H](C(=O)NCCc2cc(OC)no2)CC(=O)N(C)[C@@H](CC(C)C)C(=O)N1C [Example 895, (3S,7S,10R,13R)-13-benzyl-10-(2-ethoxyethyl)-20-fluoro-7-isobutyl-N-(2-(3-methoxyisoxazol-5-yl)ethyl)-6,9-dimethyl-1,5,8,11-tetraoxo-1,2,3,4,5,6,7,8,9,10,11,12,13,14-tetradecahydro-[1]oxa[4,7,10,14]tetraazacycloheptadecino[16,17-f]quinoline-3-carboxamide] | – | – | pEC50 [5]: 6.87; Emax [6]: 409%
11 | CC(C)C[C@H]1C(=O)N2CCOC[C@@H]2C(=O)N[C@H](Cc2ccccc2)COc2cnc3ccccc3c2C(=O)N[C@H](C(=O)NCCc2ccc(C(C)(C)C)cc2)CC(=O)N1C [Example 48, (9S,13S,19aR,22R)-22-benzyl-N-(4-(tert-butyl)phenethyl)-13-isobutyl-12-methyl-7,11,14,20-tetraoxo-7,8,9,10,11,12,13,14,16,17,19,19a,20,21,22,23-hexadecahydro-[1,4]oxazino[3′,4′:6,7][1]oxa[4,7,10,14]tetraazacycloheptadecino[17,16-c]quinoline-9-carboxamide] | 6.39 | 151% | –
12 | COc1cccc(CCNC(=O)[C@@H]2CC(=O)N(C)[C@@H](CC(C)C)C(=O)N3CCN(C4CC4)C[C@H]3C(=O)N[C@H](Cc3ccccc3)COc3ccc4ccccc4c3C(=O)N2)c1 [Example 357, (4aS,7R,18S,22S)-7-benzyl-3-cyclopropyl-22-isobutyl-N-(3-methoxyphenethyl)-21-methyl-5,16,20,23-tetraoxo-2,3,4,4a,5,6,7,8,16,17,18,19,20,21,22,23-hexadecahydro-1H-naphtho[1,2-p]pyrazino[2,1-f][1]oxa[4,7,10,14]tetraazacycloheptadecine-18-carboxamide] | 6.32 | 124% | –
13 | COc1cccc(CCNC(=O)[C@@H]2CC(=O)N(C)[C@@H](CC(C)C)C(=O)N(CCC3CCCCC3)CC(=O)N[C@H](Cc3ccccc3)COc3cc4ccccc4cc3C(=O)N2)c1 [Example 251, (3R,9S,13S)-3-benzyl-7-(2-cyclohexylethyl)-9-isobutyl-N-(3-methoxyphenethyl)-10-methyl-5,8,11,15-tetraoxo-2,3,4,5,6,7,8,9,10,11,12,13,14,15-tetradecahydronaphtho[2,3-p][1]oxa[4,7,10,14]tetraazacycloheptadecine-13-carboxamide] | 7.08 | 159% | –
14 | Cc1cc2c(c3cccnc13)C(=O)N[C@H](C(=O)NCCn1nnc(C3CC3)n1)CC(=O)N(C)[C@@H](CC(C)C)C(=O)N1CCCCC1C(=O)N[C@H](Cc1ccccc1)CO2 (stereo partly drawn) [Example 928, (9S,13S,19aS,22R)-22-benzyl-N-(2-(5-cyclopropyl-2H-tetrazol-2-yl)ethyl)-13-isobutyl-2,12-dimethyl-7,11,14,20-tetraoxo-7,8,9,10,11,12,13,14,17,18,19,19a,20,21,22,23-hexadecahydro-16H-pyrido[2′,1′:6,7][1]oxa[4,7,10,14]tetraazacycloheptadecino[16,17-f]quinoline-9-carboxamide] | – | – | pEC50 [5]: 6.01; Emax [6]: 247%
15 | COc1cccc(CCNC(=O)[C@@H]2CC(=O)N(C)[C@@H](CC3CCCC3)C(=O)N(CCC3CCCCC3)CC(=O)N[C@H](Cc3ccccc3)COc3ccc4ccccc4c3C(=O)N2)c1 (mixture of isomers) [Example 300, (3RS,7S,13R)-13-benzyl-9-(2-cyclohexylethyl)-7-(cyclopentylmethyl)-N-(3-methoxyphenethyl)-6-methyl-1,5,8,11-tetraoxo-1,2,3,4,5,6,7,8,9,10,11,12,13,14-tetradecahydronaphtho[1,2-p][1]oxa[4,7,10,14]tetraazacycloheptadecine-3-carboxamide] | 6.99 | – | –
